# Laboratory results taken from article PMC7337386 (bioRxiv, 2020).
# Entries after “also recorded” stand apart in the source; their conditions may differ.
# Experiments:
# [1] = cited from earlier work; for time of peak concentration: after oral administration
# SARS-CoV-2 = details: single agent; cited from earlier work
# [2] = tested on: SARS-CoV-2 (USA_WA1/2020); assay: SARS-CoV-2 viral cytopathic effect assay; type: cell-based; details: for interaction with nitazoxanide: in combination with nitazoxanide; for interaction with nitazoxanide / interaction with remdesivir: CPE assay; for interaction with remdesivir / interaction with remdesivir at high concentrations: in combination with remdesivir; for maximum rescue of CPE, drug alone: single agent
# [3] = healthy adults; cited from earlier work
SMILES,time of peak concentration [1] [min],interaction with nitazoxanide [2],interaction with remdesivir [2],interaction with remdesivir at high concentrations [2],"maximum rescue of CPE, drug alone [2]",also measured
CCN(CC)Cc1cc(Nc2ccnc3cc(Cl)ccc23)ccc1O [Amodiaquine],≤ 30,significant synergy; also recorded: notable synergism,strong antagonistic effect,synergize,40–60%,half-life [1]: ~ 3 hours; loss of potency in Calu-3 (TMPRSS2+) versus Vero E6 (SARS-CoV-2): > 10 fold
CCOC(=O)c1c(CSc2ccccc2)n(C)c2cc(Br)c(O)c(CN(C)C)c12 [Arbidol],–,–,–,synergize,–,concentrations showing synergism with remdesivir [2]: 3 to 10 µM
OC(c1cc(C(F)(F)F)nc2c(C(F)(F)F)cccc12)C1CCCCN1 (centres unmarked) [Mefloquine],–,–,strong antagonistic effect,synergize,–,–
CC(=O)Oc1ccccc1C(=O)Nc1ncc([N+](=O)[O-])s1 [Nitazoxanide],–,–,–,–,40–60%,toxicity (Vero E6 cells; 10 μM): ~ 20%; cytotoxicity (Vero E6 cells; concentration below 5 μM): not cytotoxic; tolerability [3]: well tolerated
CCC(CC)COC(=O)[C@H](C)N[P@](=O)(OC[C@H]1O[C@@](C#N)(c2ccc3c(N)ncnn23)[C@H](O)[C@@H]1O)Oc1ccccc1 [Remdesivir],–,significant synergy; also recorded: notable synergism,–,–,40–60%,–
CCNCc1cc(Nc2ccnc3cc(Cl)ccc23)ccc1O [monodesethyl-amodiaquine],120,–,–,–,–,peak concentration ([1]; after oral administration of amodiaquine): ~ 500 nM; half-life in blood plasma [1]: 220 to 432 h
